# Test results from US12139499B2, “Heteroaryl compounds for treating Huntington's disease” (PTC THERAPEUTICS, INC., priority 2018, dated 2024).
# Test system: Endogenous Huntingtin Protein
# Test: Endogenous Huntingtin Protein Assay (ELISA-based MSD electrochemiluminescence)
# Assay type: cell-based
# Conditions: Table 1
# How it was run: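 Huntingtin was captured overnight at 4 °C on plates coated with 1 μg/mL MW1 (polyQ-expanded) or MAB2166 antibody and BSA-blocked. Detection used a rabbit monoclonal and then a SULFO-TAG goat anti-rabbit antibody (0.25 μg/mL, 1 h each, room temperature). Signal was read by electrochemiluminescence.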
row,Structure (SMILES),IC50
1,"C[C@H]1C[C@@H](N(C)c2nc3nnc(-c4ccc(-c5cn[nH]c5)cc4O)cc3s2)CCN1C [Compound 395, 2-(6-{[(2S,4S)-1,2-dimethylpiperidin-4-yl](methyl)amino}[1,3]thiazolo[4,5-c]pyridazin-3-yl)-5-(1H-pyrazol-4-yl)phenol]",≤ 100 nM
2,"C[C@@H]1C[C@@H](N(C)c2nc3nnc(-c4ccc(-c5cn[nH]c5)cc4O)cc3s2)CCN1 [Compound 396, 2-(6-{methyl[(2R,4S)-2-methylpiperidin-4-yl]amino][1,3]thiazolo[4,5-c]pyridazin-3-yl)-5-(1H-pyrazol-4-yl)phenol]",≤ 100 nM
3,"C[C@@H]1C[C@@H](N(C)c2nc3nnc(-c4ccc(-c5cn[nH]c5)cc4O)cc3s2)CCN1C [Compound 397, 2-(6-{[(2R,4S)-1,2-dimethylpiperidin-4-yl](methyl)amino}[1,3]thiazolo[4,5-c]pyridazin-3-yl)-5-(1H-pyrazol-4-yl)phenol]",≤ 100 nM
4,"CN(c1nc2nnc(-c3ccc(-c4c[nH]nc4F)cc3O)cc2s1)C1CCCNCC1 (centres unmarked) [Compound 398, 2-{6-[(azepan-4-yl)(methyl)amino][1,3]thiazolo[4,5-c]pyridazin-3-yl)-5-(3-fluoro-1H-pyrazol-4-yl)phenol]",≤ 100 nM
5,"CN(c1nc2nnc(-c3ccc(-c4cn[nH]c4)cc3O)cc2s1)C1CCN(CCO)CC1 [Compound 399, 2-(6-{[1-(2-hydroxyethyl)piperidin-4-yl](methyl)amino}[1,3]thiazolo[4,5-c]pyridazin-3-yl)-5-(1H-pyrazol-4-yl)phenol]",≤ 100 nM
